Read-outs that look alike come from different tables or passages of the source.
Test system: human articular chondrocytes
Experiment: Radioimmunoassay of cartilaginous proteoglycans (PG) produced in tridimensional culture of human chondrocytes
Assay type: cell-based
Settings: for PG in the clusters over 12 days: 0-12 days
Text: The model used for testing the proanthocyanidols, namely the tridimensional culture of human chondrocytes allows chondrorepair to be quantified by the production of matrix substances: type II collagen, proteoglycans, and chondroresorption by the reduction in the levels of prostaglandin E2 and of OH° and O°2 type free radicals produced.
1. Tridimensional culture of human chondrocytes
The technique used has been described in detail (Bassleer et al., 1986).
Briefly, human articular chondrocytes are cultivated in DMEM (Dulbecco's Modification of Eagle's Medium--ICN--Gand, Belgium) with either Ultroser G 1% (GIBCO, Gand, Belgium) or 10% of foetal calf serum (ICN--Gand--Belgium), and 50 μg of ascorbic acid/ml added to it. The cartilage originates from the apparently normal zone of heads of human femur suffering from arthrosis, immediately after an operation carried out to insert a total hip prosthesis; it can also originate from the head of a healthy femur, but which has undergone a traumatism and has had to be replaced. This cartilage is then digested by clostridial collagenase 1 mg/ml (Boehringer-Mannheim, Germany) in a buffer (NaCl 120 mM, CaCl2 1 mM, KCl 5 mM, KH2 PO4 1 mM, NaHCO3 25 mM, glucose 2 mM and Hepes 30 mM, pH 7.4) for 24 hours. After 6 successive washings and centrifugations, the chondrocytes, isolated from their matrix, are cultured in flasks (10^6 cells/2 ml of culture medium) placed on a gyrator (10 rpm). The cultures are kept at 37° C. in an atmosphere of air 95%-CO2 5% (Bassleer et al., 1986). Cultivated under these conditions, after 4 to 5 days the chondrocytes form a tridimensional cluster in each flask. These clusters, which at first have a flocculent appearance, then tend to condense during the culture. After two weeks, their diameter is, in general, from 1 to 2 mm.
The fresh weight of the clusters increases with the duration of the culture, above all during the few first days.
2. Radioimmunoassay of cartilaginous proteoglycans (PG)
The PGs are measured with a radioimmunoassay (RIA) which is specific and sensitive to human cartilaginous PGs (Gysen et al. 1984). The PGs were extracted from human cartilage, according to the methods described by Roughley et al., (1981) and by Bayliss and Venn (1980). The antiserum against the cartilaginous PGs was obtained from the rabbit according to the technique of Vaitukaitis et al. (1971). The radioimmunoassay is carried out in a 0.4 ml volume consisting of 0.1 ml of tracer solution (15000 to 20000 cpm ^125 I-PG, labelled by the chloramine T method (Greenwood, 1973). 0.1 ml of anti-PG antiserum diluted to 1/5000 in phosphate-buffered saline (PBS-50 mM PO4, 150 mM NaCl ), containing BSA (5 g/l bovine serum albumin and 6.7 mM sodium azide) (incubation buffer) and 0.2 ml of several dilutions of the culture medium or of the cluster extract or also of the antigen (0.5 -500 ng/tube).
After four days at 4° C., the free PGs* (radioactive PGs) are separated from the PG*-antibody complexes by double precipitation (Franchimont et al., 1983).
The sensitivity of the assay is 0.6 ng/tube. The accuracy of measurement is of the order of 4%. The coefficients of the intra- and inter assay variation are less than 10% and 20% respectively.
The antibodies are directed against the antigenic determinants of the central protein of PG. There is a complete crossed reaction with human PGs of cartilage from the ribs, vertebral disks and trachea, even with PGs extracted from veins or arteries. There is no cross reaction with glycosaminoglycans or with PGs extracted from foetal tissues or the small PGs from bone.
The PGs are measured directly in the culture medium. As for the chondrocyte clusters, they are washed 3 times in a phosphate-buffered saline (PBS-50 mM PO4, 150 mM NaCl pH 7.4) containing protease inhibitors (Oegema et al., 1975:100 mM 6-aminohexanoic acid, 10 mM EDTA, 50 mM benzamidine hydrochloride, 5.10^-8 M trypsin inhibitor, 6.7 mM sodium azide and 200 U/ml superoxide dismutase). […]

Oc1cc(O)c2c(c1)O[C@H](c1cc(O)c(O)c(O)c1)[C@@H](O)[C@@H]2c1c(O)cc(O)c2c1O[C@H](c1cc(O)c(O)c(O)c1)[C@H](O)C2 [Substance Ia, GC-(4 alpha→8) EGC]
PG in the clusters over 12 days (1% Ultroser G, 1 μg/ml): 912 ± 83.6 ng/μg DNA
PG in the clusters over 12 days (1% Ultroser G, 10 μg/ml): 1411 ± 153 ng/μg DNA
PG in the clusters over 12 days (1% Ultroser G, 100 μg/ml): 2105 ± 42 ng/μg DNA
PGs released in the culture medium (1% Ultroser G, culture time 0-4 days, 1 μg/ml): 14.2 ± 1.6 μg/μg DNA/96 h
PGs released in the culture medium (1% Ultroser G, culture time 0-4 days, 10 μg/ml): 22.4 ± 0.2 μg/μg DNA/96 h
PGs released in the culture medium (1% Ultroser G, culture time 0-4 days, 100 μg/ml): 28.6 ± 2.85 μg/μg DNA/96 h
PGs released in the culture medium (1% Ultroser G, culture time 4-8 days, 1 μg/ml): 1.74 ± 0.18 μg/μg DNA/96 h
PGs released in the culture medium (1% Ultroser G, culture time 4-8 days, 10 μg/ml): 3.26 ± 0.12 μg/μg DNA/96 h
PGs released in the culture medium (1% Ultroser G, culture time 4-8 days, 100 μg/ml): 3.94 ± 0.1 μg/μg DNA/96 h
PGs released in the culture medium (1% Ultroser G, culture time 8-12 days, 1 μg/ml): 0.44 ± 0.04 μg/μg DNA/96 h
PGs released in the culture medium (1% Ultroser G, culture time 8-12 days, 10 μg/ml): 0.74 ± 0.18 μg/μg DNA/96 h
PGs released in the culture medium (1% Ultroser G, culture time 8-12 days, 100 μg/ml): 0.78 ± 0.02 μg/μg DNA/96 h
Proteoglycans released during the 12 days of culture, Abs (1% Ultroser G, cumulative, 1 μg/ml): 16.4 μg/μg DNA/12 days
Proteoglycans released during the 12 days of culture, Abs (1% Ultroser G, cumulative, 10 μg/ml): 26.4 μg/μg DNA/12 days
Proteoglycans released during the 12 days of culture, Abs (1% Ultroser G, cumulative, 100 μg/ml): 33.3 μg/μg DNA/12 days
Concentrations of PG in the clusters, effect in words (1% Ultroser G, three concentrations studied): significantly stimulated and in a dose-dependent way
activity at 1 µg/mL (Homo sapiens, Chondrocyte, 288 h, 1% Ultroser G, cumulative, 1 μg/ml, control = 100, read-out: Proteoglycans released during the 12 days of culture, %): 103%
activity at 10 µg/mL (Homo sapiens, Chondrocyte, 288 h, 1% Ultroser G, cumulative, 10 μg/ml, control = 100, read-out: Proteoglycans released during the 12 days of culture, %): 165%
activity at 100 µg/mL (Homo sapiens, Chondrocyte, 288 h, 1% Ultroser G, cumulative, 100 μg/ml, control = 100, read-out: Proteoglycans released during the 12 days of culture, %): 208%
activity at 10 µg/mL (Homo sapiens, Chondrocyte, foetal calf serum, Table 14, 0-4 days, 10 μg/ml, control = 100%, read-out: PG in the culture medium, % of control): 118%
activity at 100 µg/mL (Homo sapiens, Chondrocyte, foetal calf serum, Table 14, 0-4 days, 100 μg/ml, control = 100%, read-out: PG in the culture medium, % of control): 147%
activity at 10 µg/mL (Homo sapiens, Chondrocyte, foetal calf serum, Table 14, 4-8 days, 10 μg/ml, control = 100%, read-out: PG in the culture medium, % of control): 119%
activity at 100 µg/mL (Homo sapiens, Chondrocyte, foetal calf serum, Table 14, 4-8 days, 100 μg/ml, control = 100%, read-out: PG in the culture medium, % of control): 135%
activity at 10 µg/mL (Homo sapiens, Chondrocyte, foetal calf serum, Table 15, 0-4 days, 10 μg/ml, control = 100%, read-out: PG in the culture medium, % of control): 131%
activity at 100 µg/mL (Homo sapiens, Chondrocyte, foetal calf serum, Table 15, 0-4 days, 100 μg/ml, control = 100%, read-out: PG in the culture medium, % of control): 166%
activity at 10 µg/mL (Homo sapiens, Chondrocyte, foetal calf serum, Table 15, 4-8 days, 10 μg/ml, control = 100%, read-out: PG in the culture medium, % of control): 123%
activity at 100 µg/mL (Homo sapiens, Chondrocyte, foetal calf serum, Table 15, 4-8 days, 100 μg/ml, control = 100%, read-out: PG in the culture medium, % of control): 138%
activity at 10 µg/mL (Homo sapiens, Chondrocyte, foetal calf serum, Table 16, 0-8 days, 10 μg/ml, control = 100%, read-out: PG in the clusters over 8 days, % of control): 128%
activity at 100 µg/mL (Homo sapiens, Chondrocyte, foetal calf serum, Table 16, 0-8 days, 100 μg/ml, control = 100%, read-out: PG in the clusters over 8 days, % of control): 158%
activity at 10 µg/mL (Homo sapiens, Chondrocyte, foetal calf serum, Table 17, 0-8 days, 10 μg/ml, control = 100%, read-out: PG in the clusters over 8 days, % of control): 120%
activity at 100 µg/mL (Homo sapiens, Chondrocyte, foetal calf serum, Table 17, 0-8 days, 100 μg/ml, control = 100%, read-out: PG in the clusters over 8 days, % of control): 144%
PGs in the clusters, effect in words (foetal calf serum, 10 and 100 μg/ml): significantly increased
PG in the culture medium (foetal calf serum, Table 14, 0-4 days, 10 μg/ml): 7.7 ± 0.49 μg/μg DNA - 96 H
PG in the culture medium (foetal calf serum, Table 14, 0-4 days, 100 μg/ml): 9.5 ± 1.34 μg/μg DNA - 96 H
PG in the culture medium (foetal calf serum, Table 14, 4-8 days, 10 μg/ml): 2.37 ± 0.17 μg/μg DNA - 96 H
PG in the culture medium (foetal calf serum, Table 14, 4-8 days, 100 μg/ml): 2.69 ± 0.15 μg/μg DNA - 96 H
PG in the culture medium (foetal calf serum, Table 15, 0-4 days, 10 μg/ml): 6.9 ± 0.99 μg/μg DNA - 96 H
PG in the culture medium (foetal calf serum, Table 15, 0-4 days, 100 μg/ml): 8.8 ± 1.49 μg/μg DNA - 96 H
PG in the culture medium (foetal calf serum, Table 15, 4-8 days, 10 μg/ml): 2.1 ± 0.21 μg/μg DNA - 96 H
PG in the culture medium (foetal calf serum, Table 15, 4-8 days, 100 μg/ml): 2.4 ± 0.09 μg/μg DNA - 96 H
PG in the clusters over 8 days (foetal calf serum, Table 16, 0-8 days, 10 μg/ml): 1004 ± 56 ng/μg DNA
PG in the clusters over 8 days (foetal calf serum, Table 16, 0-8 days, 100 μg/ml): 1242 ± 208 ng/μg DNA
PG in the clusters over 8 days (foetal calf serum, Table 17, 0-8 days, 10 μg/ml): 688.8 ± 40.65 ng/μg DNA
PG in the clusters over 8 days (foetal calf serum, Table 17, 0-8 days, 100 μg/ml): 829.4 ± 9.37 ng/μg DNA
